From patent US20140127292A1, “PHARMACEUTICAL COMPOSITIONS FOR THE ORAL ADMINISTRATION OF HEPARIN OR DERIVATIVES THEREOF” (Cosmo Technologies Limited, priority 2001, published 2014) come the findings set out here.

In this data set the test system is colitis induced by trinitrobenzene sulfonic acid (TNBS). Briefly: in vivo test: TNBS-induced colitis in rats, intracolonic treatment. The conditions noted are these: for Colon weight: 10 cm distal colon; for Colon weight / Macroscopic score / Necrosis areas (Mucosal Damage Area, MDA): day 4; for Body weight variation / Final body weight: days 1-3, day 4; for Macroscopic score / Necrosis areas (Mucosal Damage Area, MDA): distal colon. Here is the method: 70 Wister male rats were kept fasted for 20 hours before the induction of colitis. In the morning of the experiment (day 0), the rats were injected with a 40% solution of ethanol containing 30 mg of trinitrobenzene sulfonic acid (TNBS) by means of a single intracolonic injection. On days 1, 2 and 3 after the induction of colitis, Dalteparin sodium suspended in 0.25 mL of a 1% sodium cholate in saline (0.3 mg/rat, 0.6 mg/rat and 0.9 mg/rat), or 0.25 mL of vehicle (1% sodium cholate in saline) were instilled intracolonically. An additional group constituted by 4 untreated rats was also included. On day 4 from the induction of colitis, animals were euthanized and autopsy was performed. The colon have been isolated and 10 cm of the distal portion have been resected and weighted. […] The results, summarized in the table below, have been compared with those obtained from the control animals.

[1] abbreviates: 0.6 mg/rat/die intracolonic, listed as dalteparin sodium.

Dalteparin sodium registered a Mortality (0.3 mg/rat/die intracolonic) of 0%, a Mortality (0.6 mg/rat/die intracolonic) of 10% and a Mortality (0.9 mg/rat/die intracolonic) of 10%. Besides, the Colon weight reads like this: (0.3 mg/rat/die intracolonic) 1.72 ± 0.30 g; (0.3 mg/rat/die intracolonic, listed as dalteparin sodium) 1.72 ± 0.30 g; (0.6 mg/rat/die intracolonic) 1.80 ± 0.38 g; (0.9 mg/rat/die intracolonic) 1.76 ± 0.22 g; (0.9 mg/rat/die intracolonic, listed as dalteparin sodium) 1.76 ± 0.22 g. The Body weight variation is −21% (0.3 mg/rat/die intracolonic), −15% (0.6 mg/rat/die intracolonic) and −17% (0.9 mg/rat/die intracolonic). In addition, the Final body weight was found to be 166 ± 14 g (0.3 mg/rat/die intracolonic), 180 ± 17 g (0.6 mg/rat/die intracolonic) and 176 ± 15 g (0.9 mg/rat/die intracolonic). In addition, the Macroscopic score reads like this: (0.3 mg/rat/die intracolonic) 5.6 ± 0.52; (0.6 mg/rat/die intracolonic) 4.9 ± 1.05; under setting [1], 4.9±1.05; (0.9 mg/rat/die intracolonic) 5.8 ± 0.44. Moreover, the “Necrosis areas (Mucosal Damage Area, MDA)” value (“Necrosis areas” below) (0.3 mg/rat/die intracolonic) is 463.4 ± 89.6 mm^2; the “Necrosis areas” value (0.6 mg/rat/die intracolonic) amounted to 309.9 ± 155.8 mm^2; the “Necrosis areas” value under setting [1] came out at 309.9±155.8 mm^2; the “Necrosis areas” value (0.9 mg/rat/die intracolonic) was 492.5 ± 104.6 mm^2. Further, where the note is “0.3, 0.6 and 0.9 mg/rat intracolonic, versus vehicle control group”, the “overall effect of treatment on the considered parameters” value is “effective in reducing all the considered parameters”.
